We go through two compounds from patent US4012345A, “Des-(Ala^1, Gly^2), Met^11 -SRIF and intermediates” (American Home Products Corporation, priority 1976, dated 1977).

One assay concerns insulin. The assay is described as follows: Arginine-stimulated plasma insulin in Nembutal-anesthetized rats (radioimmunoassay). It is filed as in vivo, albino male rats. The protocol: (§1) The in vivo activity of the compounds of this invention was established by subjecting des-(Ala^1, Gly2), Met^11 -Somatostatin, as a representative compound of the invention, to the following standard test procedure: Three groups of ten albino male rats were arranged to provide a control group, a group for observation of Somatostatin activity as the standard and a group for the study of the test compound des-(Ala^1, Gly^2), Met^11 -Somatostatin. Nembutal (50 mg/kg) was injected intraperitoneally into each rat. Fifteen minutes later a subcutaneous injection of the test compound, somatostatin and physiological saline (control) was administered separately to each of the three groups of rats. Ten minutes later 0.5 milliliters of arginine (300 mg/ml, pH 7.2) was injected into the rats heart. The rats were decapitated five minutes later and their blood was collected in Trasylol -EDTA. Aliquot samples were radioimmunoassayed for growth hormone and insulin.

Another assay relates to growth hormone. The assay is described as follows: Arginine-stimulated plasma growth hormone in Nembutal-anesthetized rats (radioimmunoassay). The format is in vivo, albino male rats. The following applies: *p < 0.01. Here is the method: as §1
In another assay the test system is somatotropin. The following applies: Brazeau et al., Science, 179 pp 77-79 (1973); cited from earlier work.

Positions of bridges follow the written chain, without caps; N, C: chain ends. Residues, ends and D or L forms follow the SMILES beside them.

In the case of `CSCC[C@@H]1NC(=O)[C@H]([C@@H](C)O)NC(=O)[C@H](CCCCN)NC(=O)[C@H](Cc2c[nH]c3ccccc23)NC(=O)[C@H](Cc2ccccc2)NC(=O)[C@H](Cc2ccccc2)NC(=O)[C@H](CC(N)=O)NC(=O)[C@H](CCCCN)NC(=O)[C@@H](N)CSSC[C@@H](C(=O)O)NC(=O)[C@H](CO)NC(=O)[C@H]([C@@H](C)O)NC1=O` [Example 3, L-Cysteinyl-L-lysyl-L-asparaginyl-L-phenylalanyl-L-phenylalanyl-L-tryptophyl-L-lysyl-L-threonyl-L-methionyl-L-threonyl-L-seryl-L-cysteine (1-12) disulfide] (H-CKNFFWKTMTSC-OH; disulfide 1-12), the Insulin is on record as 143 ± 13 μU/ml in the assay with insulin (Experiment 1, dose 400 μg/kg subcutaneous, control 172 ± 11, *p < 0.01) and 128 ± 13 μU/ml in the assay with insulin (Experiment 3, dose 1500 μg/kg subcutaneous, control 206 ± 19). Moreover, the GH turned out to be 72 ± 12 ng/mL in the assay with growth hormone (Experiment 2, dose 100 μg/kg subcutaneous, control 176 ± 29) and 42 ± 10 ng/mL with growth hormone (Experiment 3, dose 1500 μg/kg subcutaneous, control 123 ± 16).
In the case of “H-Ala-Gly-Cys-Lys-Asn-Phe-Phe-Trp-Lys-Thr-Phe-Thr-Ser-Cys-OH (H-AGCKNFFWKTFTSC-OH; ends and bridges not checked) [linear form of somatostatin]”, the “inhibition of secretion of somatotropin (growth hormone)” value in the assay on somatotropin was “same biological activity as somatostatin obtained from a natural source”.
